{
  "source": "patent US8193364B2",
  "about": "“Insecticidal N-substituted (6-haloalkylpyridin-3-yl)-alkyl sulfoximines” (Dow AgroSciences, LLC., priority 2006, dated 2012)",
  "format_in_all_cases": "in vivo",
  "key": {"[1]": {"tested_on": "Brown Planthopper (Nilaparvata lugens)", "test": "Brown planthopper root-uptake systemic assay on rice", "procedure": "A foliar spray assay and a root-uptake systemic assay were performed on both brown planthopper and green leafhopper. Four-week-old rice seedlings were submerged in 3-cm depth of water in the bottom portion (high 5 cm, diameter 3 cm) of a 2-part glass cylinder (high 18 cm, diameter 3 cm). A metal screen was used to hold the seedlings within the bottom portion. Scotch tape was used to bind the two portions of the cylinder after setting up the seedlings. A metal cap was used to cover the cylinder. There were 4 cylinders for each treatment. The test compound was dissolved in acetone to make a 10,000 ppm stock solution. For the foliar spray assay, this stock solution was diluted with water to make 10, 2.5, 0.31, 0.08 and 0.02 ppm test solutions. A volume of 0.5 ml of a test solution or solvent blank as check was sprayed into the glass cylinder. For systemic test, the stock solution was incorporated at final test concentrations of 10, 2.5, 0.31, 0.08 and 0.02 ppm in the water in which rice seedlings were submerged. In both foliar spray and systemic tests, five laboratory-reared 3rd instar nymphs of brown planthopper or green leafhopper were introduced into each cylinder 3 hr after insecticide application. The treated test units were kept in a growth chamber with conditions set as followings: Temperature 28±0.5° C.; Relative humidity 70±0.5%; Photoperiod […]."}, "[2]": {"tested_on": "Sweet Potato Whitefly (Bemisia tabaci)", "test": "Sweet potato whitefly foliar spray assay on cotton", "conditions": "12 days, live large nymphs", "source_text": "This test was designed to measure the capability of whitefly eggs and/or young nymphs to develop to large nymphs. Cotton seedlings at the growth stage of one or two expanding true leaf were trimmed so that only the first true leaf remained (cotyledon leaves were also removed). The plants were pre-infested with sweet potato whitefly eggs by keeping plants next to the colony-keeping plants for two days. The infested plants were carefully checked for presence of similar egg density before use in the insecticidal tests. Master solutions of test compounds at 1000 ppm were prepared in acetone:methanol (1:1). The 12.5 ppm spray solutions were then made by diluting 0.188 mL of the master solution with 14.812 ml of 0.025% Tween 20 in water. The lower concentrations were made by diluting the 12.5 ppm spray solution with a diluent consisting 98.75 parts of 0.025% Tween 20 in water and 1.25 parts of acetone:methanol (1:1). The diluent was used as solvent control. The test solutions were sprayed with a hand-held Devilbiss sprayer until runoff to both sides of the infested cotton leaves. Four plants (4 replications) were used for each treatment. Treated plants were held in a holding room for 12 days at approximately 23° C. and 40% RH before evaluation. To evaluate the efficacy of the compounds, the number of live large nymphs in an area of 1 square inch on the lower surface of the treated cotton leaves was counted under a microscope. Insecticidal activity was determined by Corrected % Control using Abbott's correction formula and presented in Table 5: Corrected % Control=100*(X−Y)/X • where X=No. of live large nymphs on solvent check plants • Y=No. of live large nymphs on treated plants"}, "[3]": {"tested_on": "Green Peach Aphid (Myzus persicae)", "test": "Green peach aphid foliar spray assay on cabbage", "conditions": "72 h, read-out: % Control at ppm, foliar spray, green peach aphid on cabbage", "procedure": "Cabbage seedlings grown in 3-inch pots, with 2-3 small (3-5 cm) true leaves, were used as test substrate. The seedlings were infested with 20-50 green peach aphids (wingless adult and nymph) 2-3 days prior to chemical application. Four seedlings were used for each treatment. Compounds (2 mg) were dissolved in 2 ml of acetone:methanol (1:1) solvent, forming stock solutions of 1000 ppm. The stock solutions were then diluted with a diluent consisting 80 parts of 0.025% Tween 20 in […] and 20 parts of acetone:methanol (1:1). A hand-held Devilbiss sprayer was used for spraying the test solutions to both sides of cabbage leaves until runoff. Reference plants (solvent check) were sprayed with the diluent only. Treated plants were held in a holding room for three days at approximately 23° C. and 40% RH prior to grading. Evaluation was conducted by counting the number of live aphids per plant under a microscope. Insecticidal activity was measured by using Abbott's correction formula: Corrected % Control=100*(X−Y)/X • where X=No. of live aphids on solvent check plants • Y=No. of live aphids on treated plants The Corrected % Control values from assays are given in Table 2."}, "[4]": {"tested_on": "Cat Flea (Ctenocephalides felis)", "test": "Cat flea filter wool assay", "conditions": "48-hour observation", "procedure": "Compound 2 was evaluated in a dose response series to establish the range of activity of the test compound. Technical material was dissolved in acetone and diluted with the same solvent to obtain the test concentrations. Bioassays were conducted by treating polyester aquarium filter wool with 1.0 ml of the test solution, thoroughly saturating the substrate and allowing it to dry for at least 1 hour. The dry filter wool was then placed into 10 cm plastic Petri dishes and covered with the lid. Each treatment was replicated 5 times. Approximately 15 unfed cat flea adults were placed into each replicate of each dosage being evaluated. Mortality was assessed at 2, 8, 24 and 48 hours after introduction of the fleas into the test system. The mean percent mortality for each dosage group and time interval was determined and results from the 48-hour observation are presented in Table 9."}},
  "data": [
    {"smiles": "CC(c1ccc(C(F)(F)F)nc1)S(C)(=O)=NC#N", "note": "(stereo not drawn) [Compound 2, [1-(6-trifluoromethylpyridin-3-yl)ethyl](methyl)-oxido-λ^4-sulfanylidenecyanamide]", "values": [
      {"measurement": "% Control at ppm against brown planthopper", "setting": "[1]; 0.02 ppm in water", "value": "F (Less than 50)"},
      {"measurement": "% Control at ppm against brown planthopper", "setting": "[1]; 0.08 ppm in water", "value": "C (70-79)"},
      {"measurement": "% Control at ppm against brown planthopper", "setting": "[1]; 0.31 ppm in water", "value": "A (90-100)"},
      {"measurement": "% Control at ppm against brown planthopper", "setting": "[1]; 2.5 ppm in water", "value": "A (90-100)"},
      {"measurement": "% Control at ppm against brown planthopper", "setting": "[1]; 10 ppm in water", "value": "A (90-100)"},
      {"measurement": "% Control at ppm, foliar spray, sweet potato whitefly on cotton", "setting": "[2]; 0.781 ppm", "value": 80, "unit": "%"},
      {"measurement": "% Control at ppm, foliar spray, sweet potato whitefly on cotton", "setting": "[2]; 3.125 ppm", "value": 94, "unit": "%"},
      {"measurement": "% Control at ppm, foliar spray, sweet potato whitefly on cotton", "setting": "[2]; 12.500 ppm", "value": 100, "unit": "%"},
      {"measurement": "pest or weed control at 0.195 ppm", "setting": "[3]", "value": "80 to 89", "unit": "%"},
      {"measurement": "pest or weed control at 0.781 ppm", "setting": "[3]", "value": "90 to 100", "unit": "%"},
      {"measurement": "pest or weed control at 3.125 ppm", "setting": "[3]", "value": "90 to 100", "unit": "%"},
      {"measurement": "mortality at 5 ppm", "setting": "[4]; 5 ppm", "value": 18, "unit": "%"},
      {"measurement": "mortality at 50 ppm", "setting": "[4]; 50 ppm", "value": 25, "unit": "%"},
      {"measurement": "mortality at 500 ppm", "setting": "[4]; 500 ppm", "value": 40, "unit": "%"},
      {"measurement": "mortality at 5000 ppm", "setting": "[4]; 5,000 ppm", "value": 57, "unit": "%"}
    ]}
  ]
}
